What was measured:
Assay type in all cases: cell-based
[1] = test system: HL-60(TB); test: NCI 60 screen, HL-60(TB); conditions: Homo sapiens, Leukemia
Procedure: (§1) The compounds synthesized were tested at the National Cancer Institute (NCI) for anti-proliferative activity in the 60 human tumor cell line assay.

[2] = test system: U251; test: NCI 60 screen, U251; conditions: Homo sapiens, U-251, CNS
Procedure: as §1

[3] = test system: COLO 205; test: NCI 60 screen, COLO 205; conditions: Homo sapiens, Colon
Procedure: as §1

[4] = test system: SF-268; test: NCI 60 screen, SF-268; conditions: Homo sapiens, CNS
Procedure: as §1

[5] = test system: ACHN; test: NCI 60 screen, ACHN; conditions: Homo sapiens, Renal
Procedure: as §1

[6] = test system: HCT15; test: NCI 60 screen, HCT15; conditions: Homo sapiens, HCT-15, Colon
Procedure: as §1

[7] = test system: MDA-MB-231/ATCC; test: NCI 60 screen, MDA-MB-231/ATCC; conditions: Homo sapiens, Breast
Procedure: as §1

[8] = test system: SF-539; test: NCI 60 screen, SF-539; conditions: Homo sapiens, CNS
Procedure: as §1

[9] = test system: A498; test: NCI 60 screen, A498; conditions: Homo sapiens, Renal
Procedure: as §1

[10] = test system: NCI-H522; test: NCI 60 screen, NCI-H522; conditions: Homo sapiens, Non-Small Cell Lung
Procedure: as §1

[11] = test system: CCRF-CEM; test: NCI 60 screen, CCRF-CEM; conditions: Homo sapiens, Leukemia
Procedure: as §1

[12] = test system: SK-MEL-2; test: NCI 60 screen, SK-MEL-2 (second line); conditions: Homo sapiens; Melanoma, SK-MEL-2 (second of two lines so named, r38)
Procedure: as §1

[13] = test system: chromosome alignment, centromeres, and spindle body; test: Fluorescence microscopy of chromosome alignment, centromeres and spindle body; conditions: FIGS. 8A-8B
Description: FIGS. 8A-8B: Color images showing effects of compound 25 on chromosome alignment, centromeres, and spindle body. Microtubules that make up the mitotic spindle are detected with an antibody linked to a green fluorophore, which was detected with a fluorescence microscope. Centromeres were detected with a far red fluorophore (they are pseudocolored pink). DNA was detected with Hoechst DNA stain, which is blue.
In normal cells (FIG. 8A, upper two panels), chromosomes line up between the spindle poles at metaphase. In cells treated with compound 25 for several hours (FIG. 8A, lower two panels), cells still enter mitosis but centromeres are found all over the cell (not just in the middle between the poles of the spindle). […] However, when ZM is combined with compound 25, what was observed was a very dramatic disruption of spindle architecture. […] Without wishing to be bound by theory, it is believed that both Aurora B and the targets of compound 25 work in parallel to control tubulin function. When either one is inhibited alone, there is no effect since the other pathway compensates. When both are inhibited, the defect is detected.

[14] = test system: 786-0; test: NCI 60 screen, 786-0; conditions: Homo sapiens, Renal
Procedure: as §1

[15] = test system: SNB-75; test: NCI 60 screen, SNB-75; conditions: Homo sapiens, CNS
Procedure: as §1

[16] = test system: UACC-62; test: NCI 60 screen, UACC-62; conditions: Homo sapiens, Melanoma
Procedure: as §1

[17] = test system: HOP-92; test: NCI 60 screen, HOP-92; conditions: Homo sapiens, Non-Small Cell Lung
Procedure: as §1

[18] = test system: UO-31; test: NCI 60 screen, UO-31; conditions: Homo sapiens, Renal
Procedure: as §1

[19] = test system: IGROV1; test: NCI 60 screen, IGROV1; conditions: Homo sapiens, IGROV-1, Ovarian
Procedure: as §1

[20] = test system: HOP-62; test: NCI 60 screen, HOP-62; conditions: Homo sapiens, Non-Small Cell Lung
Procedure: as §1

[21] = test system: OVCAR-8; test: NCI 60 screen, OVCAR-8; conditions: Homo sapiens, Ovarian
Procedure: as §1

[22] = test system: OVCAR-5; test: NCI 60 screen, OVCAR-5; conditions: Homo sapiens, Ovarian
Procedure: as §1

[23] = test system: HCT-116; test: NCI 60 screen, HCT-116; conditions: Homo sapiens, Colon
Procedure: as §1

[24] = test system: MDA-MB-435; test: NCI 60 screen, MDA-MB-435; conditions: Homo sapiens, Melanoma
Procedure: as §1

[25] = test system: KM12; test: NCI 60 screen, KM12; conditions: Homo sapiens, Colon
Procedure: as §1

[26] = test system: HCC-2998; test: NCI 60 screen, HCC-2998; conditions: Homo sapiens, Colon
Procedure: as §1

[27] = test system: A549/ATCC; test: NCI 60 screen, A549/ATCC; conditions: Homo sapiens, Non-Small Cell Lung
Procedure: as §1

[28] = test system: BT-549; test: NCI 60 screen, BT-549; conditions: Homo sapiens, Breast
Procedure: as §1

[29] = test system: SK-OV-3; test: NCI 60 screen, SK-OV-3; conditions: Homo sapiens, Ovarian
Procedure: as §1

[30] = test system: SK-MEL-2; test: NCI 60 screen, SK-MEL-2 (first line); conditions: Homo sapiens; Melanoma, SK-MEL-2 (first of two lines so named, r37)
Procedure: as §1

[31] = test system: T-47D; test: NCI 60 screen, T-47D; conditions: Homo sapiens, T47D, Breast
Procedure: as §1

[32] = test system: OVCAR-3; test: NCI 60 screen, OVCAR-3; conditions: Homo sapiens, Ovarian
Procedure: as §1

[33] = test system: HeLa cells; test: Mitotic arrest of HeLa cells observed under the microscope; conditions: 10 μM
Procedure: FIG. 6: Color images showing untreated HeLa cells used as a control. Mitotic duration: 60 minutes. Each frame was taken after 12 minute intervals. Frame 5 to frame 9 show cells' progression through mitosis.
FIG. 7: Color images showing HeLa cells treated with 10 μM of compound 25. Mitotic duration: 27.4 hr.
Although developed as HDAC inhibitors, the compounds herein may actually act by multiple mechanisms. […] Snap shots were taken at a 12 minute interval.
A cell that is rounded up in frame 2 enters mitosis (FIG. 7).

[34] = test system: SK-MEL-5; test: NCI 60 screen, SK-MEL-5; conditions: Homo sapiens, Melanoma
Procedure: as §1

[35] = test system: DU-145; test: NCI 60 screen, DU-145; conditions: Homo sapiens, Prostatic
Procedure: as §1

[36] = test system: SNB-19; test: NCI 60 screen, SNB-19; conditions: Homo sapiens, CNS
Procedure: as §1

[37] = test system: PC-3; test: NCI 60 screen, PC-3; conditions: Homo sapiens, Prostatic
Procedure: as §1

[38] = test system: MDA-MB-468; test: NCI 60 screen, MDA-MB-468; conditions: Homo sapiens, Breast
Procedure: as §1

[39] = test system: EKVX; test: NCI 60 screen, EKVX; conditions: Homo sapiens, Non-Small Cell Lung
Procedure: as §1

O=C(Cc1ccc(/C=C/C(=O)c2ncc[nH]2)cc1)Nc1ccc(Cl)cc1 [Compound 25, (E)-2-(-4 (3-(1H-imidazol-2-yl)-3-oxoprop-1-en-1-yl)phenyl)-N-(4-chlorophenyl)acetamide]
GI50 [1]: 3.8 µM
GI50 [2]: 1.02 µM
GI50 [3]: 3.01 µM
GI50 [4]: 1.65 µM
GI50 [5]: 4.04 µM
GI50 [6]: 0.879 µM
GI50 [7]: 4.27 µM
GI50 [8]: 3.33 µM
GI50 [9]: 5.48 µM
GI50 [10]: 2.6 µM
GI50 [11]: 1.08 µM
GI50 [12]: 4.81 µM
Spindle body / spindle architecture [13]: the spindle body remained intact
Chromosome alignment / centromere position ([13]; cells treated for several hours): chromosomes were misaligned
GI50 [14]: 1.13 µM
GI50 [15]: 3.63 µM
GI50 [16]: 3.94 µM
GI50 [17]: 5.74 µM
GI50 [18]: 1.69 µM
GI50 [19]: 3.59 µM
GI50 [20]: 3.19 µM
GI50 [21]: 3.65 µM
GI50 [22]: 3.3 µM
GI50 [23]: 0.848 µM
GI50 [24]: 4.14 µM
GI50 [25]: 1.3 µM
GI50 [26]: 3.73 µM
GI50 [27]: 6.9 µM
GI50 [28]: 3.46 µM
GI50 [29]: 9.74 µM
GI50 [30]: 5.53 µM
GI50 [31]: 3.24 µM
GI50 [32]: 1.14 µM
Fate of arrested cells [33]: eventually underwent apoptosis
Mitotic arrest (progress through cell division) ([33]; monitored for over 27.4 hours): did not proceed with cell division
Mitotic duration ([33]; untreated control 60 minutes): 27.4 h
GI50 [34]: 6.17 µM
GI50 [35]: 1.7 µM
GI50 [36]: 2.32 µM
GI50 [37]: 2.39 µM
GI50 [38]: 1.68 µM
GI50 [39]: 5.68 µM

Source: patent US11098038B2, “Imidazole-based anticancer agents and derivatives thereof, and methods of making and using same” (The University of Toledo, priority 2017, dated 2021)
